The text below walks through data of patent US9221781B2, “Synthesis of polyhydroxy chromenone compounds and their anti-tumor effects” (BEIJING SHENOGEN PHARMA GROUP LTD., priority 2012, dated 2015).

Where two headings read alike, the source gives them in different places. Bounds are passed on as bounds.

Experiment [1] relates to HL-60 cells. Description: Inhibition of growth of acute myeloblastic leukemia HL-60 cells by MTT method. Type of experiment: cell-based, human. The note with it: 72 hours; for inhibition at 1 µM: Homo sapiens, 10^−6M, read-out: The inhibition percentage of cell proliferation by the compounds with a concentration of 10^−6M, HL-60 cells. As for the experimental part:
A: Inhibition of Growth of Acute Myeloblastic Leukemia HL-60 Cells by the Compounds Detected by MTT Method
The acute myeloblastic leukemia HL-60 cells from ATCC were maintained in IMDM and 10% fetal calf serum at 37° C. in a 5% CO2 atmosphere. The cells were subseeded in a 96-well culture plate at a concentration of 6×10^3 cells/well. HL-60 cells were treated with a test compound dissolved in DMSO at the concentration of 0, 10^−4M, 10^−5M, 10^−6M, 10^−7M, 10^−8M for 72 hours. OD value was tested by MTT method, and the inhibition ratio was calculated.
In general terms: Tetrazolium dyes change colour on reduction, which living cells bring about.

For experiment [2], the system named is Molt-4 cells. Put plainly: Inhibition of growth of acute lymphoblastic leukemia Molt-4 cells by MTT method. In kind it is cell-based. Particulars: 72 hours; for inhibition at 1 µM: Homo sapiens, 10^−6M, read-out: The inhibition percentage of cell proliferation by the compounds with a concentration of 10^−6M, Molt-4 cells. As for the experimental part: B: Inhibition of Growth of Acute Lymphoblastic Leukemia Molt-4 Cells by the Compounds Detected by MTT Method
The acute lymphoblastic leukemia Molt-4 cells from ATCC were maintained in RPMI-1640 and 10% fetal calf serum at 37° C. in a 5% CO2 atmosphere. The cells were subseeded in a 96-well culture plate at a concentration of 6×10^3 cells/well and maintained RPMI-1640 and 10% fetal calf serum at 37° C. 5%CO2 atmosphere. Molt-4 cells were treated with a test compound dissolved in DMSO at the concentration of 0, 10^−4M, 10^−5M, 10^−6M, 10^−7M, 10^−8M for 72 hours. OD value was tested by MTT method, and the inhibition ratio was calculated.

The test system of experiment [3] is BEL-7402 cells. Put plainly: Inhibition of liver cancer cell BEL-7402 in vitro by SRB. Type of experiment: cell-based. The note with it: Homo sapiens, 10^−6M, 72 hours, read-out: The inhibition percentage of cell proliferation by the compounds with a concentration of 10^−6M, BEL-7402 cells. As to the method:
A: Inhibition of Liver Cancer Cell BEL-7402 In Vitro by the Compounds Detected by SRB
The liver cancer BEL-7402 cells from ATCC were maintained in DMDM, 10% NCS and 50 μg/ml KANA at 37° C. in a 5% CO2 atmosphere, and were subseeded in a 96-well culture plate at a concentration of 6×10^3 cells/well. BEL-7402 cells were treated with a test compound dissolved in DMSO at the concentration of 0, 10^−4M, 10^−5M, 10^−6M, 10^−7M, 10^−8M for 72 hours. OD value was tested by SRB method, and the inhibition percentage was calculated.

Experiment [4] deals with MDA-MB-231 cells. Put plainly: CellTiter-Glo Luminescent Cell Viability Assay on ER-negative breast cancer MDA-MB-231 cells in vitro. In kind it is cell-based. The note with it: Homo sapiens, 72 hours, read-out: Inhibition of viability of breast cancer cells IC50, MDA-MB-231 cells. As for the experimental part:
A: CellTiter-Glo® Luminescent Cell Viability Assay on ER-Negative Breast Cancer MDA-MB-231 In Vitro:
MDA-MB-231 cells were maintained at 37° C., in a 5% CO2 atmosphere in DMEM and 10% fetal calf serum. The cells were placed at a density of 6×10^3 cells per well in a 96-well plate. MDA-MB-231 cells were treated with a test compound dissolved in DMSO at the concentration of 0, 0.3 μM, 0.5 μM, 1 μM, 2 μM, 3 μM, 5 μM, 10 μM, 20 μM, 30 μM, 50 μM and 100 μM for 72 hours. Treated cells were examined under CellTiter-Glo® Luminescent Cell Viability Assay Kit (Promega), and luminescence were recorded with Envision.

The test system of experiment [5] is MCF7 cells. Description: CellTiter-Glo Luminescent Cell Viability Assay on ER-positive breast cancer MCF-7 cells in vitro. Type of experiment: cell-based. The note with it: Homo sapiens, 72 hours, read-out: Inhibition of viability of breast cancer cells IC50, MCF7 cells. As to the method:
B: CellTiter-Glo® Luminescent Cell Viability Assay on ER-Positive Breast Cancer MCF-7 Cells In Vitro:
MCF7 cells from ATCC were maintained in an Dulbecco's modified Eagle medium (DMEM), and 10% fetal calf serum at 37 in a 5% CO2 atmosphere. Cells were placed at a density of 6×10^3 cells per well in a 96-well plate. MCF 7 cells were treated with a test compound dissolved in DMSO at the concentration of 0, 0.3 μM, 0.5 μM, 1 μM, 2 μM, 3 μM, 5 μM, 10 μM, 20 μM, 30 μM, 50 μM and 100 μM for 72 hours. Treated cells were examined through CellTiter-Glo® Luminescent Cell Viability Assay Kit (Promega), and luminescence were recorded with Envision.

Experiment [6] relates to K562 cells. Description: Viability of chronic leukemia cells K562 by CellTiter-Glo Luminescent Assay in vitro. Type of experiment: cell-based, human. The note with it: 72 hours, read-out: Inhibition of viability of cells in vitro IC50, K562 cells. As to the method: A: Detection of Viability of Chronic Leukemia Cells K562 by CellTiter-Glo® Luminescent Assay In Vitro
The chronic leukemia cells K562 from ATCC were maintained in IMDM and 10% fetal calf serum at 37° C. in a 5% CO2 atmosphere. The cells were subseeded in a 96-well culture plate at a cencentration of 6×10^3 cells/well.K562 cells were treated with a test compound dissolved in DMSO at the concentration of 0, 0.3 μM, 0.5 μM, 1 μM, 2 μM, 3 μM, 5 μM, 10 μM, 20 μM, 30 μM, 50 μM and 100 μM for 72 hours. Treated cells were examined by CellTiter-Glo® Luminescent Cell Viability Assay Kit (Promega), and luminescence were recorded with Envision.

For experiment [7], the system named is Daudi cells. Description: Inhibition of human B lymphoma Daudi cells by CellTiter-Glo Luminescent Assay in vitro. In kind it is cell-based. The note with it: 72 hours, read-out: Inhibition of viability of cells in vitro IC50, Daudi cells. As to the method:
A: Inhibition of Human B Lymphoma Daudi Cells by CellTiter-Glo® Luminescent Assay In Vitro
The Human B Lymphoma Daudi cells from ATCC were maintained in IMDM and 10% fetal calf serum at 37° C. in a 5% CO2 atmosphere. The cells were subseeded in a 96-well culture plate at a concentration of 6×10^3 cells/well. Human B Lymphoma Daudi cells were treated with a test compound dissolved in DMSO at the concentration of 0, 0.3 μM, 0.5 μM, 1 μM, 2 μM, 3 μM, 10 μM, 20 μM, 30 μM, 50 μM and 100 μM for 72 hours. Treated cells were examined by CeliTiter-Glo® Luminescent Cell Viability Assay Kit (Promega), and luminescence were recorded with Envision.
(In ATP-based viability assays light output follows the ATP content of the culture.)

As for `COc1cccc2c1C(=O)c1c(O)c3c(c(O)c1C2=O)C[C@@](O)(C(=O)CO)C[C@@H]3O[C@H]1C[C@H](N)[C@H](O)[C@H](C)O1` [Doxorubicin, reference compound], the inhibition at 1 µM in experiment [1] worked out at 79%; in experiment [2] it was 90.1%; in experiment [3] it was 55.2%.
Take `CC(C)=CCc1c(O)cc(O)c2c(=O)c(O)c(-c3ccc(Cl)c(C(F)(F)F)c3)oc12` [Compound 7, 2-(3-trifluoromethyl-4-chlorophenyl)-3,5,7-trihydroxy-8-(3-methyl-2-buten-1-yl)-4H-chromen-4-one]: the IC50 was found to be 9.3 µM in experiment [4], 7.54 µM in experiment [5], 6.14 µM in experiment [6] (Homo sapiens) and 4.07 µM in experiment [7] (Homo sapiens). Besides, the inhibition at 1 µM was below 10% in experiment [1], 57% in experiment [2] and 19.8% in experiment [3].
For `CC(C)=CCc1c(O)cc(O)c2c(=O)c(O)c(-c3ccc(F)cc3)oc12` [Compound 2, 2-(4-fluorophenyl)-3,5,7-trihydroxy-8-(3-methyl-2-buten-1-yl)-4H-chromen-4-one], the half-maximal inhibitory concentration (IC50) was above 100 µM in experiment [4], 3.17 µM in experiment [5], 6.14 µM in experiment [6] (Homo sapiens) and 9.23 µM in experiment [7] (Homo sapiens). Besides, the inhibition at 1 µM in experiment [2] was below 10%; in experiment [3] it was 21.8%.
As for `COc1c(-c2ccc(C(F)(F)F)cc2)oc2c(CC=C(C)C)c(O)cc(O)c2c1=O` [Compound 9, 2-(4-trifluoromethylphenyl)-3-methoxy-5,7-dihydroxy-8-(3-methyl-2-buten-1-yl)-4H-chromen-4-one], the IC50 in experiment [4] and in experiment [5] was above 100 µM each time. Moreover, the inhibition at 1 µM was below 10% in experiment [1], below 10% in experiment [2] and 11.7% in experiment [3].
For “2-(4-fluorophenyl)-3-methoxy-5,7-dihydroxy-8-(3-methyl-2-buten-1-yl)-4H-chromen-4-one [Compound 11]”, the IC50 in experiment [6] and in experiment [7] was above 100 µM in each case. Besides, in experiment [1], the “The inhibition percentage of cell proliferation by the compounds with a concentration of 10^−6M, HL-60 cells” value is “NA (NA means no activity, and inhibition percentage by the compound with a concentration of 10^−6M was below 10%.)”. The “The inhibition percentage of cell proliferation by the compounds with a concentration of 10^−6M, Molt-4 cells” value in experiment [2] is “NA (NA means no activity, and inhibition percentage by the compound with a concentration of 10^−6M was below 10%.)”.
Take `CC(C)=CCc1c(O)cc(O)c2c(=O)c(O)c(-c3ccc(Cl)c(Cl)c3)oc12` [Compound 6, 2-(3,4-dichlorophenyl)-3,5,7-trihydroxy-8-(3-methyl-2-buten-1-yl)-4H-chromen-4-one]: the 50% inhibitory concentration (IC50) in experiment [4] worked out at 1.88 µM; in experiment [5], 6.85 µM; in experiment [6] (Homo sapiens) it was 0.935 µM; in experiment [7] (Homo sapiens) it was 1.98 µM. The inhibition at 1 µM worked out at 61.9% in experiment [1], 67.4% in experiment [2] and 14.9% in experiment [3].
On to `CC(C)=CCc1c(O)cc(O)c2c(=O)c(O)c(-c3ccc(OC(F)(F)F)cc3)oc12` [Compound 5, 2-(4-trifluoromethoxyphenyl)-3,5,7-trihydroxy-8-(3-methyl-2-buten-1-yl)-4H-chromen-4-one], for which the IC50 turned out to be 4.48 µM in experiment [4], 6.85 µM in experiment [5], 1.48 µM in experiment [6] (Homo sapiens) and 1.49 µM in experiment [7] (Homo sapiens). The inhibition at 1 µM turned out to be 59.8% in experiment [1], 69.4% in experiment [2] and 15.6% in experiment [3].
Take `Nc1ccn([C@@H]2O[C@H](CO)[C@@H](O)[C@@H]2O)c(=O)n1` [cytarabinen, reference compound]: the IC50 in experiment [7] is 10 µM.
For `COc1c(-c2ccc(F)c(F)c2)oc2c(CC=C(C)C)c(O)cc(O)c2c1=O` [Compound 10, 2-(3,4-difluorophenyl)-3-methoxy-5,7-dihydroxy-8-(3-methyl-2-buten-1-yl)-4H-chromen-4-one], the half-maximal inhibitory concentration (IC50) in experiment [4] was above 100 µM; in experiment [5] it was 31.5 µM; in experiment [6] (Homo sapiens) it was above 100 µM; in experiment [7] (Homo sapiens), 21.8 µM. Also, the inhibition at 1 µM in experiment [3] is 17.4%.
On to `CC(C)=CCc1c(O)cc(O)c2c(=O)c(O)c(-c3ccc(Cl)c(F)c3)oc12` [Compound 3, 2-(3-fluoro-4-chlorophenyl)-3,5,7-trihydroxy-8-(3-methyl-2-buten-1-yl)-4H-chromen-4-one], for which the IC50 came out at 2.87 µM in experiment [4], 8.6 µM in experiment [5], 1.85 µM in experiment [6] (Homo sapiens) and 2.91 µM in experiment [7] (Homo sapiens). In addition, the inhibition at 1 µM turned out to be 28.5% in experiment [1], 14.4% in experiment [2] and 28.6% in experiment [3].
`CC(C)=CCc1c(O)cc(O)c2c(=O)c(O)c(-c3ccc(Cl)cc3)oc12` [Compound 4, 2-(4-chlorophenyl)-3,5,7-trihydroxy-8-(3-methyl-2-buten-1-yl)-4H-chromen-4-one]: the IC50 in experiment [4] amounted to 4.33 µM; in experiment [5], 16 µM; in experiment [6] (Homo sapiens) it was 0.974 µM; in experiment [7] (Homo sapiens), 2.64 µM. Besides, the values for the inhibition at 1 µM in experiment [1], in experiment [2] and in experiment [3] were 0.974%, 14.7% and 46.4%, respectively.

As a reminder, the IC50 is the concentration needed to halve the response being measured.
